PubChem BioAssay AID1996
In brackets after ≈: the same amount, converted by molar mass.

Settings: buffer; pH 7.4; 200.0 µM

Row | solubility kinetic [µg/mL] | Structure (SMILES)
1 | > 44.9 | CS(=O)(=O)Nc1cccc(-c2cnc3ccccc3n2)c1
2 | > 34.7 | O=C1CCCCCCCN1Cc1ccccc1
3 | > 49.1 | CCc1ccc(OCC2NCCc3cc(OC)c(OC)cc32)cc1 (stereo not given)
4 | > 38.2 | O=C(CN1CCOCC1)Nc1ccc(Cl)cc1
5 | 48.9 (≈ 147 µM) | CC(C)OCCCNC(=O)C1CC(=O)N(CCc2ccccc2)C1 (stereo not given)
6 | 11.3 (≈ 33.7 µM) | O=C(CN1C(=O)NC2(CCCCC2)C1=O)Nc1ccc(Cl)cc1
7 | 37.6 (≈ 136 µM) | COc1ccc(NC(=O)NCc2ccco2)cc1OC
8 | > 38.4 | O=C(N/N=C/c1cccc(O)c1)c1ccccc1O
9 | 10.4 (≈ 30.1 µM) | CCN(C(=O)COC(=O)c1ccc2c(c1)OCO2)c1ccc(F)cc1
10 | 9.8 (≈ 36.4 µM) | O=C1CCCCCCCCCC/C(=N\O)CCCO1
11 | > 45.5 | CCNC(=O)CN1C(=O)NC2(CCOc3ccccc32)C1=O (stereo not given)
12 | > 48.4 | Cc1nc2cc(NS(=O)(=O)c3cccc(F)c3)ccc2s1
13 | 31.1 (≈ 141 µM) | NC(=O)c1ccc(OCC(F)(F)F)nc1
14 | > 50.6 | O=C(COC(=O)CCC(=O)c1cccs1)NCc1cccs1
15 | 2.1 (≈ 6.65 µM) | CC(Oc1ccc(Cl)cc1)C(=O)N1CCCc2ccccc21 (stereo not given)
16 | < 0.4 | CCOc1ccc(-c2nc3scc(-c4cccs4)c3c(=O)[nH]2)cc1
17 | 9.3 (≈ 25.7 µM) | O=C1CN(C(=O)COC(=O)c2ccc([N+](=O)[O-])s2)c2ccccc2N1
18 | > 65.2 | COc1ccc(NC(=O)COC(=O)c2cc(S(=O)(=O)N3CCCC3)ccc2O)cc1
19 | > 51.4 | COc1cccc(C(=O)NCCCNC(=O)c2cccc(OC)c2)c1
20 | 20.5 (≈ 75 µM) | CCOC(=O)C1CCCN(C/C=C/c2ccccc2)C1 (stereo not given)
21 | > 44.5 | Cc1ccc(C(=O)NCCC(=O)Nc2ccccc2C)cc1
22 | 10.1 (≈ 27 µM) | COC(=O)c1ccc(NC(=O)CN2C(=O)NC3(CCC(C)CC3)C2=O)cc1 (stereo not given)
23 | 14.2 (≈ 52.7 µM) | Cc1ccc2oc(=O)n(CCOc3ccccc3)c2c1
24 | 49.5 (≈ 128 µM) | CC(=O)NC12CC3CC(C1)CC(C(=O)OCC(=O)c1cc(C)n(C)c1C)(C3)C2

Row | solubility kinetic [µg/mL] | Structure (SMILES)
25 | 18.2 | CC(CN1CCOCC1)OC(=O)c1ccc(C(C)(C)C)cc1.Cl (stereo not given)
26 | 3.2 (≈ 9.8 µM) | CC(C)c1ccc(NC(=O)CSc2nc3ncccc3[nH]2)cc1
27 | 2.3 (≈ 9.12 µM) | CCCOc1ccc(-c2cn3ccccc3n2)cc1
28 | 40.5 (≈ 134 µM) | Cc1ccc(CNC(=O)C2CC(=O)N(CCC(C)C)C2)cc1 (stereo not given)
29 | 12.1 (≈ 43.2 µM) | CN(C)c1cccc(C(=O)Nc2nc3ccccc3[nH]2)c1
30 | 8.4 (≈ 28.1 µM) | C/C(=N\O)c1ccn(S(=O)(=O)c2ccc(Cl)cc2)c1
31 | 3 (≈ 12.2 µM) | CC(=O)c1sc(Nc2cccc(C)c2)nc1C
32 | 2 (≈ 5.63 µM) | Cc1ccccc1NC(=O)CC1SC(=Nc2ccc(O)cc2)NC1=O (stereo not given)
33 | 24.9 (≈ 127 µM) | CNc1nc(NC#N)nc(SC)n1
34 | < 0.2 | Cc1ccc(NC(=O)Nc2cccc(C)n2)c(C)c1
35 | > 45.2 | CC(OC(=O)c1ccccc1)C(=O)NCCC1=CCCCC1 (stereo not given)
36 | > 42.8 | COc1ccc(S(=O)(=O)N2CCCC2)cc1C(=O)O
37 | > 44.6 | CC(OC(=O)c1ccccc1CCc1ccccc1)C(N)=O (stereo not given)
38 | 51.8 (≈ 132 µM) | COc1ccccc1NCCC(=O)OCC(=O)Nc1cc([N+](=O)[O-])ccc1F
39 | > 47.3 | CC(=O)C1=C(O)C(=O)N(Cc2ccco2)C1c1ccccc1F (stereo not given)
40 | < 0.7 | O=C(OCc1csc(-c2ccccc2)n1)c1ccccc1O
41 | > 33.8 | Nc1ncnc2c1ncn2Cc1ccccc1
42 | 2.8 (≈ 7.46 µM) | O=C(NC(=O)c1ccc(C(F)(F)F)cc1)Nc1ccc(-c2cnco2)cc1
43 | < 0.4 | COc1cc(CSc2nc(-c3ccccc3)cc(=O)[nH]2)cc(OC)c1
44 | > 52 | COc1ccc(CNCC(O)COc2ccc(C)cc2[N+](=O)[O-])cc1 (stereo not given)
45 | > 49.9 | CN1C(=O)N(C)C(c2ccccc2Cl)C2=C1CC(C)(C)CC2=O (stereo not given)
46 | > 47.9 | COCCNC(=S)N1CCN(C/C=C/c2ccccc2)CC1
47 | 19.5 (≈ 66.5 µM) | CCCCCCN=C1CC(C)(C)CC(=O)/C1=C(/O)CCC
48 | 16.9 (≈ 40.9 µM) | NS(=O)(=O)c1cc(C(=O)OCC(=O)Nc2ccc3c(c2)OCO3)ccc1Cl

Row | solubility kinetic [µg/mL] | Structure (SMILES)
49 | > 49.4 | CC(C)(C)OC(=O)C(C)(C)O/N=C(\C(=O)O)c1csc(N)n1
50 | 0.4 (≈ 1.26 µM) | COc1ccccc1NC(=S)NC(=O)/C=C/c1cccs1
51 | > 42 | COC(=O)Cn1c(Cc2ccccc2)nc2ccccc21
52 | > 60.1 | Cc1c(NC(=O)COC(=O)c2ccc(Cl)nc2)c(=O)n(-c2ccccc2)n1C
53 | > 45.2 | CC(C)CN(C(=O)C1CCCCC1)C1CCS(=O)(=O)C1 (stereo not given)
54 | 33.3 (≈ 122 µM) | CCOc1ccc(NC(=S)Nc2cccnc2)cc1
55 | 5.3 (≈ 13.3 µM) | COCC(C)NC(=O)c1ccc2nc(-c3ccccc3)c(-c3ccccc3)nc2c1 (stereo not given)
56 | > 53.3 | Cn1c(=O)c2c(ncn2CCC(=O)N/N=C/c2cccnc2)n(C)c1=O
57 | 32.5 (≈ 141 µM) | Cc1cc(NC(=O)Cc2ccccc2C)no1
58 | 50.2 (≈ 147 µM) | CC(C)(C)C(=O)Nc1ccc(C(=O)COC(=O)c2ccccn2)cc1
59 | > 35.9 | Cc1ccc(C(=O)OCC(=O)NC2CC2)s1
60 | > 42.1 | CC1CCN(C(=O)NC(=O)c2ccc(Cl)cc2)CC1
61 | 3.5 (≈ 10.8 µM) | COc1ccc(CNC(=O)N2CCN(c3ccccc3)CC2)cc1
62 | 33.5 (≈ 104 µM) | CCC(=O)N1c2ccc(S(=O)(=O)N3CCCC3)cc2CC1C (stereo not given)
63 | 42 (≈ 144 µM) | O=C(c1ccco1)N1CCn2cccc2C1c1ccccc1 (stereo not given)
64 | > 23.6 | Cc1nc(C)c(C(=O)O)s1
65 | 41.3 (≈ 125 µM) | CCC(CC)NC(=O)Cn1c(C(C)NC(C)=O)nc2ccccc21 (stereo not given)
66 | > 38 | O=C(O)CCC(=O)NCC(=O)c1ccc(F)cc1
67 | 2.4 (≈ 6.1 µM) | O=[N+]([O-])c1ccc(CSc2ccc(S(=O)(=O)N3CCCCC3)cn2)cc1
68 | 28.8 (≈ 90.5 µM) | COC(=O)c1ccc(NC(=O)Cn2c([N+](=O)[O-])cnc2C)cc1
69 | < 0.5 | Cc1c(-c2ccccc2)cnc2c(C)cccc12
70 | 20.6 (≈ 59.8 µM) | CSc1ncccc1C(=O)OCC(=O)NCCCc1ccccc1
71 | > 36.2 | O=C(COC(=O)c1ccncc1)c1ccccc1
72 | 1.5 (≈ 5.94 µM) | O=C1NC(=O)C2(CCCCCCCCCCC2)N1

Row | solubility kinetic [µg/mL] | Structure (SMILES)
73 | > 41.9 | O=C(OCC(=O)N1CCCC1=O)c1ccc(O)cc1O
74 | 0.8 (≈ 2.48 µM) | COc1ccc(CN2CN(C3CCCC3)CSC2=S)cc1
75 | 29.8 (≈ 66.2 µM) | O=C(CCNC(=O)c1ccccc1)Nc1ccc(Cl)c(S(=O)(=O)N2CCCCC2)c1
76 | 6.1 (≈ 18.6 µM) | CC(NC(=O)COC(=O)/C=C/c1cccc(F)c1)c1ccccc1 (stereo not given)
77 | > 54.4 | O=C(NCc1ccco1)/C(=C\C=C\c1ccccc1)NC(=O)c1ccco1
78 | 20.4 (≈ 74.1 µM) | Cc1ccc(S(=O)(=O)NCc2ccccc2C)cc1
79 | 4.9 (≈ 13.1 µM) | O=C(CSc1ccc([N+](=O)[O-])cc1)Nc1ccccc1N1CCOCC1
80 | 12 (≈ 43 µM) | CC(C)c1ccc(NC(=O)C2CC2c2ccccc2)cc1 (stereo not given)
81 | 27.1 (≈ 106 µM) | c1ccc(N2CCN(C3CC4CCC3C4)CC2)cc1 (stereo not given)
82 | > 50.8 | Cc1ccc(NC(=O)C2CCCN2C(=O)Oc2ccccc2)c(C)c1 (stereo not given)
83 | < 0.4 | COc1ccc(NC(=O)c2cc(-c3ccc(C)cc3)on2)cc1OC
84 | > 49.2 | O=C(c1ccccc1)C1CCN(C(=O)c2ccc(Cl)cc2)CC1
85 | 2.3 (≈ 7.54 µM) | Cc1ccc(NC(=S)NCc2ccc(Cl)cc2)c(C)c1
86 | 7.7 (≈ 22.9 µM) | O=C(Nc1ccc(Cl)cc1)C1(S(=O)(=O)c2ccccc2)CC1
87 | 5.6 (≈ 14.6 µM) | COc1cccc(/C=C/C(=O)OCC(=O)NCCCc2ccccc2)c1OC
88 | 1.2 (≈ 3.88 µM) | COc1ccc(C(=O)/C=C2/C(=O)Nc3ccccc32)cc1OC
89 | 8.2 (≈ 30.2 µM) | CC(C)(C)C(=O)O/N=C(\N)c1ccc([N+](=O)[O-])s1
90 | 2.4 (≈ 7.2 µM) | CCCS(=O)(=O)Nc1cccc(-c2nc3cccnc3s2)c1
91 | 2.4 (≈ 7.27 µM) | O=C(COC(=O)c1cccc(F)c1)NC(=O)NCc1ccccc1
92 | 3.8 (≈ 11.4 µM) | CCOC(=O)c1cnc2ccc(C)cc2c1N(C)Cc1ccccc1
93 | > 33.9 | Cc1ccc(CNC(=O)c2cccnc2)cc1
94 | 45.6 (≈ 147 µM) | CCN1CCN(S(=O)(=O)c2ccc(C(C)(C)C)cc2)CC1
95 | 3.4 (≈ 7.18 µM) | COc1ccc(NCC(=O)Nc2cccc(C(F)(F)F)c2)cc1S(=O)(=O)N1CCOCC1
96 | 14.2 (≈ 47.9 µM) | O=C(COc1ccc2ccc(=O)oc2c1)Nc1cccnc1

Row | solubility kinetic [µg/mL] | Structure (SMILES)
97 | 41 (≈ 140 µM) | C/C(=C\C(=O)c1ncc(C(F)(F)F)cc1Cl)N(C)C
98 | > 41.3 | COc1ccccc1OCCNC(=O)c1ccc(C)o1
99 | < 0.4 | COc1ccccc1C1NC(=O)NC(C)=C1C(=O)OC1CCC(C)CC1 (stereo not given)
100 | 1.2 (≈ 3.87 µM) | C=CCSc1nsc(NC(=O)Nc2ccc(F)cc2)n1
101 | > 33.8 | CN(C)N1C(=O)CC(N2CCCCC2)C1=O (stereo not given)
102 | 38.7 (≈ 120 µM) | CC(C)(C)c1cc(CN(CCO)CCO)c(O)c(C(C)(C)C)c1
103 | 2.1 (≈ 7.94 µM) | Fc1ccc(-c2csc(N3CCOCC3)n2)cc1
104 | 19.2 (≈ 61.8 µM) | CC1CCC(NC(=O)C(Cc2ccccc2)n2cccc2)CC1 (stereo not given)
105 | > 23.7 | Cc1ccc2cc(N)ccc2n1
106 | > 27.2 | CC(=O)c1c(C)[nH]c(C(=O)O)c1C
107 | > 45.2 | O=C(Nn1cnc2ccccc2c1=O)c1c(F)cccc1F
108 | > 45.4 | Cc1ccc2c(c1)N(CC(=O)N1CCCCC1C)C(=O)CO2 (stereo not given)
109 | 10.6 (≈ 27.4 µM) | CSc1ncccc1C(=O)OCC(=O)Nc1ccc(N2CCOCC2)cc1
110 | 39.6 (≈ 141 µM) | COc1ccc(CC(=O)N2CCc3ccccc3C2)cc1
111 | > 53.4 | CCN(CC)CCn1c(=S)[nH]c2ccc(Br)cc2c1=O
112 | 44.7 (≈ 128 µM) | CN(C)Cc1ccc(CNC(=O)COc2ccc3ccccc3c2)cc1
113 | 77.9 (≈ 149 µM) | COc1ccc(Cl)cc1NC(=O)CN(C)CC(=O)N(CC(C)C)c1c(N)n(CC(C)C)c(=O)[nH]c1=O
114 | > 46.8 | O=C(O)CSc1cccnc1Sc1ccc(Cl)cc1
115 | > 45.7 | Cc1cccc(/C=N/NC(=O)c2cc(C)nc3ccccc23)n1
116 | 8.7 (≈ 26.4 µM) | Cc1ccnc(NC(=O)COC(=O)C23CC4CC(CC(C4)C2)C3)n1
117 | 41.1 (≈ 147 µM) | Cc1ccsc1C(=O)OCC(=O)NCc1ccco1
118 | > 38.9 | O=c1[nH]c(CSc2ncn[nH]2)nc2ccccc12

Row | Structure (SMILES) | solubility kinetic [µg/mL]
119 | COc1ccccc1NC(=O)COC(=O)c1cn(C)c2ccccc12 | 1.5 (≈ 4.43 µM)
120 | Cc1ccccc1CN(C)CCc1ccccn1.O=C(O)C(=O)O | 25.6
